The values below come from PubChem BioAssay (NCI).

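Five concentrations, 48 hours, 96-well plates. TGI is the concentration that stops growth completely.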

Among the test systems are ACHN renal; CAKI-1 renal; CCRF-CEM leukemia; HCT-15 colon; HOP-62 NSCLC; IGROV1 ovarian; LOX IMVI melanoma; MCF7 breast; MOLT-4 leukemia; NCI-H23 lung; OVCAR-4 ovarian; SF-295 CNS; SK-MEL-28 melanoma; SK-OV-3 ovarian; SW-620 colon; T-47D breast; U251 CNS; UACC-257 melanoma; UO-31 renal; A498 renal.
What all share (test): DTP human tumour cell line panel, 48 h

For the compound `CC(C)(C)OC(=O)NCC(c1c[nH]c2cc(Br)ccc12)c1c[nH]c2cc(Br)ccc12`, the TGI (usually the concentration giving total growth inhibition) with ACHN renal is 30.3 µM; in the assay on CAKI-1 renal, 91.5 µM; in the assay on CCRF-CEM leukemia it was > 100 µM; with HCT-15 colon, 30.2 µM; in the assay with HOP-62 NSCLC, 33.2 µM; in the assay on IGROV1 ovarian it was 29.4 µM. In addition, the total growth inhibition concentration (TGI) in the assay on LOX IMVI melanoma is 32.2 µM; in the assay on MCF7 breast, 34.7 µM; in the assay with MOLT-4 leukemia, > 100 µM; in the assay with NCI-H23 lung it was 34.2 µM; in the assay on OVCAR-4 ovarian, 32.9 µM; in the assay with SF-295 CNS it was 36.2 µM. Moreover, the concentration for total growth inhibition (TGI) was 83.4 µM with SK-MEL-28 melanoma; 29.5 µM with SK-OV-3 ovarian; > 100 µM in the assay with SW-620 colon; 35.2 µM in the assay with T-47D breast; 31 µM with U251 CNS; 44.6 µM in the assay on UACC-257 melanoma. In the assay on UO-31 renal, this compound returned a TGI of 34.5 µM.
On to `CC(=O)OC(OC(C)=O)c1c2ccccc2cc2ccccc12`, for which the total growth inhibition concentration (TGI) in the assay on A498 renal was 40.7 µM; with ACHN renal, 61.4 µM; with CAKI-1 renal, > 100 µM; with CCRF-CEM leukemia, 18 µM; in the assay on HCT-15 colon, 56 µM; in the assay on IGROV1 ovarian it was 55.9 µM. The TGI in the assay with LOX IMVI melanoma is 59.9 µM; in the assay with MCF7 breast it was 40.7 µM; in the assay on MOLT-4 leukemia, 16.9 µM; in the assay on NCI-H23 lung, > 100 µM; in the assay with SF-295 CNS, 45.3 µM; in the assay with SK-OV-3 ovarian, 52.4 µM. For the same compound, the concentration for total growth inhibition (TGI) in the assay with SW-620 colon was > 100 µM; with T-47D breast it was 85.2 µM; with U251 CNS, > 100 µM; in the assay on UACC-257 melanoma it was 41 µM; in the assay with UO-31 renal it was 53 µM.
For `N#CC12CC(C=O)=C(N)C1(C#N)CC(C=O)=C2N` (stereo not given), the TGI was > 100 µM with A498 renal; > 100 µM with ACHN renal; > 100 µM in the assay on CAKI-1 renal; > 100 µM with CCRF-CEM leukemia; 38.5 µM in the assay on HCT-15 colon; > 100 µM with HOP-62 NSCLC. The concentration for total growth inhibition (TGI) in the assay on IGROV1 ovarian, with LOX IMVI melanoma, in the assay on MCF7 breast, with MOLT-4 leukemia, in the assay on NCI-H23 lung and in the assay with SF-295 CNS was > 100 µM each time. Besides, the TGI in the assay with SK-MEL-28 melanoma, in the assay with SK-OV-3 ovarian, in the assay with SW-620 colon, in the assay on T-47D breast, in the assay with U251 CNS and in the assay with UACC-257 melanoma was > 100 µM each time. Besides, the concentration for total growth inhibition (TGI) in the assay with UO-31 renal was > 100 µM.
As to `CCCC(=O)Nc1cc(/C=C/C(=O)N2CC(CCl)c3ccc([N+](=O)[O-])cc32)n(C)c1` (stereo not given), the concentration for total growth inhibition (TGI) in the assay with ACHN renal is > 100 µM; in the assay on CAKI-1 renal, > 100 µM; with CCRF-CEM leukemia, 29.4 µM; with HCT-15 colon it was > 100 µM; in the assay on IGROV1 ovarian, > 100 µM; in the assay with LOX IMVI melanoma it was > 100 µM. The TGI in the assay on MCF7 breast, in the assay on NCI-H23 lung, in the assay on OVCAR-4 ovarian, in the assay with SF-295 CNS, in the assay with SK-MEL-28 melanoma and in the assay on SK-OV-3 ovarian was > 100 µM throughout. Further, the TGI in the assay with SW-620 colon, in the assay on T-47D breast, with U251 CNS, with UACC-257 melanoma and in the assay with UO-31 renal was > 100 µM in each case.
In the case of `CC(C)CC(C#CCCOC(=O)c1ccccc1)OC(=O)c1ccccc1` (stereo not given), the concentration for total growth inhibition (TGI) in the assay with A498 renal, with ACHN renal, in the assay with CCRF-CEM leukemia, in the assay with HCT-15 colon, in the assay with HOP-62 NSCLC and in the assay with IGROV1 ovarian was > 10 µM throughout. Further, the concentration for total growth inhibition (TGI) in the assay with LOX IMVI melanoma, in the assay on MCF7 breast, in the assay with MOLT-4 leukemia, in the assay with NCI-H23 lung, in the assay with SF-295 CNS and in the assay on SK-MEL-28 melanoma was > 10 µM throughout. Besides, the TGI in the assay with SK-OV-3 ovarian, with SW-620 colon, in the assay on T-47D breast, in the assay with U251 CNS, in the assay with UACC-257 melanoma and in the assay on UO-31 renal was > 10 µM in each case.
Regarding `COc1ccc2nc(N/N=C/c3ccc(C)s3)cc(C)c2c1`, the concentration for total growth inhibition (TGI) is 37.8 µM with ACHN renal; 40.5 µM in the assay with CAKI-1 renal; > 100 µM in the assay on CCRF-CEM leukemia; 32.4 µM in the assay with HCT-15 colon; 39.6 µM in the assay with HOP-62 NSCLC; 90 µM with IGROV1 ovarian. Besides, the TGI with LOX IMVI melanoma stood at 33.7 µM; in the assay with MCF7 breast, 37.5 µM; in the assay on MOLT-4 leukemia, 35.5 µM; in the assay with NCI-H23 lung it was 28.6 µM; in the assay with OVCAR-4 ovarian, 48.7 µM; in the assay on SF-295 CNS it was 37.8 µM. The concentration for total growth inhibition (TGI) was > 100 µM in the assay on SK-MEL-28 melanoma; 45 µM in the assay with SK-OV-3 ovarian; > 100 µM in the assay with SW-620 colon; 46.4 µM in the assay on T-47D breast; 72.9 µM with U251 CNS; 39.4 µM in the assay on UACC-257 melanoma. In the assay on UO-31 renal, this compound came in with a TGI of 36.5 µM.
As to `CC(=O)/C(=C/N1CC(=O)NC1=S)C(=O)Nc1ccccc1C`, the total growth inhibition concentration (TGI) in the assay with A498 renal, in the assay with ACHN renal, with CAKI-1 renal, with HCT-15 colon, in the assay with HOP-62 NSCLC and in the assay on IGROV1 ovarian was > 100 µM throughout. In addition, the concentration for total growth inhibition (TGI) in the assay on LOX IMVI melanoma, in the assay on MOLT-4 leukemia, with NCI-H23 lung, in the assay on OVCAR-4 ovarian, with SF-295 CNS and in the assay on SK-MEL-28 melanoma was > 100 µM each time. The total growth inhibition concentration (TGI) in the assay on SK-OV-3 ovarian, in the assay with SW-620 colon, in the assay with T-47D breast, in the assay on U251 CNS, in the assay with UACC-257 melanoma and with UO-31 renal was > 100 µM each time.
Turning to `COc1ccc(N[C@H](CS(=O)c2ccc(C)cc2)C(F)(F)F)cc1` (stereo not given in full), the TGI with ACHN renal, in the assay on CAKI-1 renal, with CCRF-CEM leukemia, with HCT-15 colon, in the assay with IGROV1 ovarian and in the assay on LOX IMVI melanoma was > 100 µM each time. Further, the total growth inhibition concentration (TGI) with MCF7 breast, with MOLT-4 leukemia, with NCI-H23 lung, in the assay on OVCAR-4 ovarian, in the assay with SF-295 CNS and in the assay with SK-MEL-28 melanoma was > 100 µM each time. Moreover, the TGI in the assay with SK-OV-3 ovarian, in the assay on SW-620 colon, with T-47D breast, with U251 CNS, in the assay with UACC-257 melanoma and in the assay with UO-31 renal was > 100 µM throughout.
